Results published in patent US20080194642A1, “HIGH DOSE, LONG-ACTING ECTOPARASITICIDE FOR EXTENDED CONTROL” (Wyeth, priority 2007, published 2008).

How the values were obtained:
[1] = test system: cat flea, Ctenocephalides felis; assay: Duration of control in dogs treated with ectoparasiticides at up to 3x the conventional dose against the cat flea (Example 6); type: in vivo
Text: In this evaluation, 32 mixed breed male or female dogs, aged 1 to 10 years, were used. Dogs were not treated with an ectoparasiticide for 60 days prior to the study. No drugs, baths, shampoos or pesticides were given to the dogs during the preconditioning phase or during the course of the study other than what is described in the protocol. At least 36 dogs were preconditioned for 14 days. All dogs were bathed with noninsecticidal shampoo (Day −12 to −8). On Day −7, each dog was infested with 100 unfed cat fleas, Ctenocephalides felis. On Day −5, each dog was thoroughly examined and then combed to remove and count fleas. Dogs were selected for inclusion in the study on the basis of flea retention and/or behavior. The 32 dogs with the highest flea counts were selected for the study, except for exclusion of dogs deemed not easily handled. The dogs were blocked by flea number retained, and randomly allocated within blocks into 8 groups of 4 dogs.
Applications for Groups B-H were administered using disposable syringes. Each dog received a spot of the appropriate formulation to the skin (by syringe without a needle) at the dorsal midline between the shoulder blades. Group A was left untreated. […] Observations for post-treatment adverse reactions, skin irritation and behavior of test formulations were made at four hours following administration of treatments. Thereafter, dogs were observed once daily on Days 1-14 for formulation acceptability, adverse reactions, or signs of skin irritation following treatment. Daily observations of the physical condition of the animals were made throughout the trial.
Dogs were infested with 100 adult cat fleas, Ctenocephalides felis, on Day 14 and then examined for live fleas on Day 16. The dogs were re-infested/examined on Days 28/30, 56/58, 70/72, 84/86 and then infested and examined again at 2 week intervals until efficacy waned. At each infestation, 100 unfed adult fleas were applied along the lateral midline of each dog. The negative control group (Group A) was infested before the test compound groups. Fleas were recovered by examining and combing the groups in the same order. Combs were washed and rinsed with alcohol between dogs. Plastic gloves and aprons were changed between treatment groups.
(§1) Flea counts were transformed by log (count +1), and geometric means were used to calculate percent efficacy for the treatments using (Yc−Yt)/Yc*100, where Yc and Yt equal mean counts for control and treated groups, respectively.

[2] = test system: cat flea, Ctenocephalides felis; assay: Duration of efficacy of high doses of ectoparasiticides against the cat flea in cats (Example 5); type: in vivo
Text: In this evaluation, 32 domestic shorthair cats of mixed sex, aged at least 6 months, were used to test the high doses of ectoparasiticides disclosed herein. Cats were free of ectoparasiticide treatment for 60 days prior to administration of the experimental treatments. No drugs, baths, shampoos, or pesticides were given to the cats during the preconditioning phase or during the course of the study other than what is described in the protocol. At least 36 cats were preconditioned for 7 days. On day −7, each cat was infested with 100 unfed cat fleas, Ctenocephalides felis. On Day −5, each cat was thoroughly examined and combed to remove and count fleas. 32 cats were ranked in descending order by flea count. From the ranking, the cats were divided into four blocks of eight cats each. The eight cats within each of the four blocks were randomly allocated to treatment groups (A-H).
Applications for groups B-H were administered using a disposable syringe. The dose was applied as a single spot on the dorsal neck at the base of the skull. Group A was left untreated. […] On Days 1 through 14 following administration of the treatments, cats were observed daily for reactions and formulation acceptability. Thereafter, cats were observed once daily for the remainder of the study. Cats were infested with 100 adult cat fleas on Day 14 then examined for fleas on Day 16. The cats were re-infested and examined again on Days 28 and 30, on Days 56 and 58 then bi-weekly until efficacy waned. At each infestation, 100 unfed adult fleas were applied along the dorsal rump of each cat. The negative control group (Group A) was infested before the test compound groups. Fleas were recovered by examining and combing the groups in the same order. Combs were washed and rinsed with alcohol between cats, and latex gloves were changed between treatment groups.
as §1

[3] = 10 mg imidacloprid/kg spot-on, Day 16
[4] = 10 mg imidacloprid/kg spot-on, Day 30
[5] = 10 mg imidacloprid/kg spot-on, Day 58
[6] = 10 mg imidacloprid/kg spot-on, Day 72
[7] = 10 mg imidacloprid/kg spot-on, Day 86
[8] = 10 mg imidacloprid/kg spot-on, Day 100
[9] = 30 mg imidacloprid/kg spot-on, Day 16
[10] = 30 mg imidacloprid/kg spot-on, Day 30
[11] = 30 mg imidacloprid/kg spot-on, Day 58
[12] = 30 mg imidacloprid/kg spot-on, Day 72
[13] = 30 mg imidacloprid/kg spot-on, Day 86
[14] = 30 mg imidacloprid/kg spot-on, Day 100
[15] = 10 mg imidacloprid/kg (1×) spot-on, Day 16
[16] = 10 mg imidacloprid/kg (1×) spot-on, Day 30
[17] = 10 mg imidacloprid/kg (1×) spot-on, Day 58
[18] = 10 mg imidacloprid/kg (1×) spot-on, Day 72
[19] = 10 mg imidacloprid/kg (1×) spot-on, Day 86
[20] = 30 mg imidacloprid/kg (3×) spot-on, Day 16
[21] = 30 mg imidacloprid/kg (3×) spot-on, Day 30
[22] = 30 mg imidacloprid/kg (3×) spot-on, Day 58
[23] = 30 mg imidacloprid/kg (3×) spot-on, Day 72
[24] = 30 mg imidacloprid/kg (3×) spot-on, Day 86
[25] = 7.5 mg fipronil/kg spot-on, Day 16
[26] = 7.5 mg fipronil/kg spot-on, Day 30
[27] = 7.5 mg fipronil/kg spot-on, Day 58
[28] = 7.5 mg fipronil/kg spot-on, Day 72
[29] = 7.5 mg fipronil/kg spot-on, Day 86
[30] = 7.5 mg fipronil/kg spot-on, Day 100
[31] = 22.5 mg fipronil/kg spot-on, Day 16
[32] = 22.5 mg fipronil/kg spot-on, Day 30
[33] = 22.5 mg fipronil/kg spot-on, Day 58
[34] = 22.5 mg fipronil/kg spot-on, Day 72
[35] = 22.5 mg fipronil/kg spot-on, Day 86
[36] = 22.5 mg fipronil/kg spot-on, Day 100
[37] = 7 mg fipronil/kg (1×) spot-on, Day 16
[38] = 7 mg fipronil/kg (1×) spot-on, Day 30
[39] = 7 mg fipronil/kg (1×) spot-on, Day 58
[40] = 7 mg fipronil/kg (1×) spot-on, Day 72
[41] = 7 mg fipronil/kg (1×) spot-on, Day 86
[42] = 7 mg fipronil/kg (1×) spot-on, Day 100
[43] = 7 mg fipronil/kg (1×) spot-on, Day 114
[44] = 21 mg fipronil/kg (3×) spot-on, Day 16
[45] = 21 mg fipronil/kg (3×) spot-on, Day 30
[46] = 21 mg fipronil/kg (3×) spot-on, Day 58
[47] = 21 mg fipronil/kg (3×) spot-on, Day 72
[48] = 21 mg fipronil/kg (3×) spot-on, Day 86
[49] = 21 mg fipronil/kg (3×) spot-on, Day 100

## N#Cc1ccc(CC(=NNC(=O)Nc2ccc(OC(F)(F)F)cc2)c2cccc(C(F)(F)F)c2)cc1 (mixture of isomers) [metaflumizone, (E,Z)-2-[2-(4-cyanophenyl)-1-[3-(trifluoromethyl)phenyl]ethylidene]-N-[4-(tri-fluoromethoxy)phenyl]hydrazinecarboxamide]
[1]; metaflumizone 60 mg/kg (3×) spot-on, Day 128
  % Efficacy: 96.5%

## O=[N+]([O-])/N=C1\NCCN1Cc1ccc(Cl)nc1 [imidacloprid]
[2]; [3]
  % Efficacy: 100.0%
  Flea comb count, G.M.: 0.0
[2]; [4]
  % Efficacy: 98.5%
  Flea comb count, G.M.: 1.0
[2]; [5]
  % Efficacy: 81.4%
  Flea comb count, G.M.: 10.0
[2]; [6]
  % Efficacy: 84.8%
  Flea comb count, G.M.: 10.0
[2]; [7]
  % Efficacy: 71.1%
  Flea comb count, G.M.: 16.7
[2]; [8]
  % Efficacy: 43.5%
  Flea comb count, G.M.: 33.3
[2]; [9]
  % Efficacy: 100.0%
  Flea comb count, G.M.: 0.0
[2]; [10]
  % Efficacy: 99.5%
  Flea comb count, G.M.: 0.3
[2]; [11]
  % Efficacy: 100.0%
  Flea comb count, G.M.: 0.0
[2]; [12]
  % Efficacy: 99.0%
  Flea comb count, G.M.: 0.7
[2]; [13]
  % Efficacy: 96.0%
  Flea comb count, G.M.: 2.3
[2]; [14]
  % Efficacy: 91.4%
  Flea comb count, G.M.: 5.1
[1]; [15]
  % Efficacy: 100.0%
  Flea Counts/Dog/Day (Geometric Means): 0.0
[1]; [16]
  % Efficacy: 100.0%
  Flea Counts/Dog/Day (Geometric Means): 0.0
[1]; [17]
  % Efficacy: 98.1%
  Flea Counts/Dog/Day (Geometric Means): 1.5
[1]; [18]
  % Efficacy: 80.3%
  Flea Counts/Dog/Day (Geometric Means): 15.4
[1]; [19]
  % Efficacy: 88.9%
  Flea Counts/Dog/Day (Geometric Means): 9.7
[1]; 10 mg imidacloprid/kg (1×) spot-on, Day 100
  % Efficacy: 78.3%
[1]; 10 mg imidacloprid/kg (1×) spot-on, Day 114
  % Efficacy: 52.6%
[1]; [20]
  % Efficacy: 100.0%
  Flea Counts/Dog/Day (Geometric Means): 0.0
[1]; [21]
  % Efficacy: 100.0%
  Flea Counts/Dog/Day (Geometric Means): 0.0
[1]; [22]
  % Efficacy: 100.0%
  Flea Counts/Dog/Day (Geometric Means): 0.0
[1]; [23]
  % Efficacy: 97.0%
  Flea Counts/Dog/Day (Geometric Means): 2.4
[1]; [24]
  % Efficacy: 96.4%
  Flea Counts/Dog/Day (Geometric Means): 3.1
[1]; 30 mg imidacloprid/kg (3×) spot-on, Day 100
  % Efficacy: 96.8%
[1]; 30 mg imidacloprid/kg (3×) spot-on, Day 114
  % Efficacy: 96.6%
[1]; 30 mg imidacloprid/kg (3×) spot-on, Day 128
  % Efficacy: 94.5%

## N#Cc1nn(-c2c(Cl)cc(C(F)(F)F)cc2Cl)c(N)c1[S+]([O-])C(F)(F)F (stereo not shown) [fipronil]
[2]; [25]
  % Efficacy: 97.7%
  Flea comb count, G.M.: 1.2
[2]; [26]
  % Efficacy: 96.4%
  Flea comb count, G.M.: 2.3
[2]; [27]
  % Efficacy: 78.8%
  Flea comb count, G.M.: 11.5
[2]; [28]
  % Efficacy: 81.1%
  Flea comb count, G.M.: 12.5
[2]; [29]
  % Efficacy: 66.9%
  Flea comb count, G.M.: 19.2
[2]; [30]
  % Efficacy: 14.3%
  Flea comb count, G.M.: 50.6
[2]; [31]
  % Efficacy: 97.8%
  Flea comb count, G.M.: 1.2
[2]; [32]
  % Efficacy: 100.0%
  Flea comb count, G.M.: 0.0
[2]; [33]
  % Efficacy: 93.8%
  Flea comb count, G.M.: 3.4
[2]; [34]
  % Efficacy: 94.7%
  Flea comb count, G.M.: 3.5
[2]; [35]
  % Efficacy: 64.9%
  Flea comb count, G.M.: 20.3
[2]; [36]
  % Efficacy: 31.5%
  Flea comb count, G.M.: 40.4
[1]; [37]
  % Efficacy: 99.8%
  Flea Counts/Dog/Day (Geometric Means): 0.2
[1]; [38]
  % Efficacy: 99.8%
  Flea Counts/Dog/Day (Geometric Means): 0.2
[1]; [39]
  % Efficacy: 100.0%
  Flea Counts/Dog/Day (Geometric Means): 0.0
[1]; [40]
  % Efficacy: 96.9%
  Flea Counts/Dog/Day (Geometric Means): 2.4
[1]; [41]
  % Efficacy: 97.4%
  Flea Counts/Dog/Day (Geometric Means): 2.3
[1]; [42]
  % Efficacy: 94.1%
  Flea Counts/Dog/Day (Geometric Means): 4.3
[1]; [43]
  % Efficacy: 84.7%
  Flea Counts/Dog/Day (Geometric Means): 10.2
[1]; [44]
  % Efficacy: 100.0%
  Flea Counts/Dog/Day (Geometric Means): 0.0
[1]; [45]
  % Efficacy: 100.0%
  Flea Counts/Dog/Day (Geometric Means): 0.0
[1]; [46]
  % Efficacy: 90.7%
  Flea Counts/Dog/Day (Geometric Means): 7.5
[1]; [47]
  % Efficacy: 85.4%
  Flea Counts/Dog/Day (Geometric Means): 11.4
[1]; [48]
  % Efficacy: 48.0%
  Flea Counts/Dog/Day (Geometric Means): 45.3
[1]; [49]
  % Efficacy: 39.5%
  Flea Counts/Dog/Day (Geometric Means): 44.1
